Among the data in US10150760B2, “Compounds for use in preparing heterocyclic triazole agonists of the APJ receptor” (AMGEN INC., priority 2016, dated 2018) are EC50 values, retold here.

Molecules are shown by their SMILES.

Sequence of human APJ receptor (P35414 whole entry): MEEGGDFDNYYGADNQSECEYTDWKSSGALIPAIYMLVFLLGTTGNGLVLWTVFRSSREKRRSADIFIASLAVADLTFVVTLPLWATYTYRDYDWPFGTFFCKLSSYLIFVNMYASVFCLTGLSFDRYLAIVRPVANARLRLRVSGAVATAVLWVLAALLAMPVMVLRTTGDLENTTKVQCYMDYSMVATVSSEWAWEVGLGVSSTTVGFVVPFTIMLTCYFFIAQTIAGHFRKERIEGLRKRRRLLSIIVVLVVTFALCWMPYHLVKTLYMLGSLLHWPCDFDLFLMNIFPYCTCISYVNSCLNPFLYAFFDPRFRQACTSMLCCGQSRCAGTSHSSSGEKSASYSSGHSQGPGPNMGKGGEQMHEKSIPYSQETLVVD

The experiment concerns the target human APJ receptor (Homo sapiens (Human), UniProt P35414). Briefly: [35S]GTPγS binding assay on membranes from CHO cells stably expressing human APJ receptor. Format: biochemical. As to conditions: read-out: Activity hAPJ SPA EC50 IP. An outline of the steps: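 Membranes from CHO cells stably expressing human APJ incubated with ligand, 0.2 nM [35S]GTPγS and WGA SPA beads in HEPES pH 7.5 with 5 mM MgCl2, 200 mM NaCl, 3 μM GDP, 90 min at RT. Nonspecific binding defined with 100 μM GTPγS; EC50 by non-linear regression.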
On the technique in general: Binding of GTPγS marks nucleotide exchange on a G protein.
In the case of `COc1cccc(OC)c1-n1c(NS(=O)(=O)[C@@H](C)[C@H](C)c2ncc(C)cn2)nnc1[C@H]1CCO[C@@H]1C` (single isomer, unassigned) [Example 120.0, (2S,3R)-N-(4-(2,6-dimethoxyphenyl)-5-((2S,3S)-2-methyltetrahydrofuran-3-yl)-4H-1,2,4-triazol-3-yl)-3-(5-methylpyrimidin-2-yl)butane-2-sulfonamide or (2S,3R)-N-(4-(2,6-dimethoxyphenyl)-5-((2R,3R)-2-methyltetrahydrofuran-3-yl)-4H-1,2,4-triazol-3-yl)-3-(5-methylpyrimidin-2-yl)butane-2-sulfonamide], the EC50 turned out to be 270 nM.

As to `COc1cccc(OC)c1-n1c(NS(=O)(=O)[C@@H](C)[C@H](C)c2ncc(C)cn2)nnc1[C@@H]1CCO[C@@H]1C` (single isomer, unassigned) [Example 121.0, (2S,3R)-N-(4-(2,6-dimethoxyphenyl)-5-((2R,3S)-2-methyltetrahydrofuran-3-yl)-4H-1,2,4-triazol-3-yl)-3-(5-methylpyrimidin-2-yl)butane-2-sulfonamide or (2S,3R)-N-(4-(2,6-dimethoxyphenyl)-5-((2S,3R)-2-methyltetrahydrofuran-3-yl)-4H-1,2,4-triazol-3-yl)-3-(5-methylpyrimidin-2-yl)butane-2-sulfonamide], the EC50 amounted to 880 nM. For `COc1cccc(OC)c1-n1c(NS(=O)(=O)[C@@H](C)[C@H](C)c2ncc(C)cn2)nnc1[C@H]1CCO[C@@H]1C` (single isomer, unassigned) [Example 122.0, (2S,3R)-N-(4-(2,6-dimethoxyphenyl)-5-((2S,3S)-2-methyltetrahydrofuran-3-yl)-4H-1,2,4-triazol-3-yl)-3-(5-methylpyrimidin-2-yl)butane-2-sulfonamide or (2S,3R)-N-(4-(2,6-dimethoxyphenyl)-5-((2R,3R)-2-methyltetrahydrofuran-3-yl)-4H-1,2,4-triazol-3-yl)-3-(5-methylpyrimidin-2-yl)butane-2-sulfonamide] the value was 930 nM; for `COc1cccc(OC)c1-n1c(NS(=O)(=O)[C@@H](C)[C@H](C)c2ncc(C)cn2)nnc1[C@@H]1CCO[C@@H]1C` (single isomer, unassigned) [Example 123.0, (2S,3R)-N-(4-(2,6-dimethoxyphenyl)-5-((2R,3S)-2-methyltetrahydrofuran-3-yl)-4H-1,2,4-triazol-3-yl)-3-(5-methylpyrimidin-2-yl)butane-2-sulfonamide or (2S,3R)-N-(4-(2,6-dimethoxyphenyl)-5-((2S,3R)-2-methyltetrahydrofuran-3-yl)-4H-1,2,4-triazol-3-yl)-3-(5-methylpyrimidin-2-yl)butane-2-sulfonamide], 700 nM. For `CO[C@H](c1ncc(Cl)cn1)[C@H](C)S(=O)(=O)Nc1nnc([C@H]2CCOC2)n1C1(C)CC1` (single isomer, unassigned) [Example 124.0, (1R,2S)-1-(5-chloropyrimidin-2-yl)-1-methoxy-N-(4-(1-methylcyclopropyl)-5-((R)-tetrahydrofuran-3-yl)-4H-1,2,4-triazol-3-yl)propane-2-sulfonamide or (1R,2S)-1-(5-chloropyrimidin-2-yl)-1-methoxy-N-(4-(1-methylcyclopropyl)-5-((S)-tetrahydrofuran-3-yl)-4H-1,2,4-triazol-3-yl)propane-2-sulfonamide] the value was 440 nM. In the case of `CO[C@H](c1ncc(Cl)cn1)[C@H](C)S(=O)(=O)Nc1nnc([C@H]2CCOC2)n1C1(C)CC1` (single isomer, unassigned) [Example 125.0, (1R,2S)-1-(5-chloropyrimidin-2-yl)-1-methoxy-N-(4-(1-methylcyclopropyl)-5-((R)-tetrahydrofuran-3-yl)-4H-1,2,4-triazol-3-yl)propane-2-sulfonamide or (1R,2S)-1-(5-chloropyrimidin-2-yl)-1-methoxy-N-(4-(1-methylcyclopropyl)-5-((S)-tetrahydrofuran-3-yl)-4H-1,2,4-triazol-3-yl)propane-2-sulfonamide] it was 540 nM; in that of `CO[C@H](c1ncc(Cl)cn1)[C@H](C)S(=O)(=O)Nc1nnc([C@H]2CCCOC2)n1C1(C)CC1` (single isomer, unassigned) [Example 126.0, (1R,2S)-1-(5-chloropyrimidin-2-yl)-1-methoxy-N-(4-(1-methylcyclopropyl)-5-((R)-tetrahydro-2H-pyran-3-yl)-4H-1,2,4-triazol-3-yl)propane-2-sulfonamide or (1R,2S)-1-(5-chloropyrimidin-2-yl)-1-methoxy-N-(4-(1-methylcyclopropyl)-5-((S)-tetrahydro-2H-pyran-3-yl)-4H-1,2,4-triazol-3-yl)propane-2-sulfonamide], 480 nM; in that of `CO[C@H](c1ncc(Cl)cn1)[C@H](C)S(=O)(=O)Nc1nnc([C@H]2CCCOC2)n1C1(C)CC1` (single isomer, unassigned) [Example 127.0, (1R,2S)-1-(5-chloropyrimidin-2-yl)-1-methoxy-N-(4-(1-methylcyclopropyl)-5-((R)-tetrahydro-2H-pyran-3-yl)-4H-1,2,4-triazol-3-yl)propane-2-sulfonamide or (1R,2S)-1-(5-chloropyrimidin-2-yl)-1-methoxy-N-(4-(1-methylcyclopropyl)-5-((S)-tetrahydro-2H-pyran-3-yl)-4H-1,2,4-triazol-3-yl)propane-2-sulfonamide], 7.7 nM.

Turning to `CO[C@H](c1cnc(C)cn1)[C@H](C)S(=O)(=O)Nc1nnc([C@H]2CCOC2)n1C1(C)CC1` (single isomer, unassigned) [Example 128.0, (1R,2S)-1-methoxy-N-(4-(1-methylcyclopropyl)-5-((R)-tetrahydrofuran-3-yl)-4H-1,2,4-triazol-3-yl)-1-(5-methylpyrazin-2-yl)propane-2-sulfonamide or (1R,2S)-1-methoxy-N-(4-(1-methylcyclopropyl)-5-((S)-tetrahydrofuran-3-yl)-4H-1,2,4-triazol-3-yl)-1-(5-methylpyrazin-2-yl)propane-2-sulfonamide], the EC50 turned out to be 790 nM. For `CO[C@H](c1cnc(C)cn1)[C@H](C)S(=O)(=O)Nc1nnc([C@H]2CCOC2)n1C1(C)CC1` (single isomer, unassigned) [Example 129.0, (1R,2S)-1-methoxy-N-(4-(1-methylcyclopropyl)-5-((R)-tetrahydrofuran-3-yl)-4H-1,2,4-triazol-3-yl)-1-(5-methylpyrazin-2-yl)propane-2-sulfonamide or (1R,2S)-1-methoxy-N-(4-(1-methylcyclopropyl)-5-((S)-tetrahydrofuran-3-yl)-4H-1,2,4-triazol-3-yl)-1-(5-methylpyrazin-2-yl)propane-2-sulfonamide] the value was 2100 nM. On to `CO[C@H](c1cnc(C)cn1)[C@H](C)S(=O)(=O)Nc1nnc([C@H]2CCCOC2)n1C1(C)CC1` (single isomer, unassigned) [Example 130.0, (1R,2S)-1-methoxy-N-(4-(1-methylcyclopropyl)-5-((R)-tetrahydro-2H-pyran-3-yl)-4H-1,2,4-triazol-3-yl)-1-(5-methylpyrazin-2-yl)propane-2-sulfonamide or (1R,2S)-1-methoxy-N-(4-(1-methylcyclopropyl)-5-((S)-tetrahydro-2H-pyran-3-yl)-4H-1,2,4-triazol-3-yl)-1-(5-methylpyrazin-2-yl)propane-2-sulfonamide], for which the EC50 came out at 1800 nM. For `CO[C@H](c1cnc(C)cn1)[C@H](C)S(=O)(=O)Nc1nnc([C@H]2CCCOC2)n1C1(C)CC1` (single isomer, unassigned) [Example 131.0, (1R,2S)-1-methoxy-N-(4-(1-methylcyclopropyl)-5-((R)-tetrahydro-2H-pyran-3-yl)-4H-1,2,4-triazol-3-yl)-1-(5-methylpyrazin-2-yl)propane-2-sulfonamide or (1R,2S)-1-methoxy-N-(4-(1-methylcyclopropyl)-5-((S)-tetrahydro-2H-pyran-3-yl)-4H-1,2,4-triazol-3-yl)-1-(5-methylpyrazin-2-yl)propane-2-sulfonamide] the value was 550 nM; for `COc1cccc(OC)c1-n1c(NS(=O)(=O)[C@@H](C)[C@H](C)c2cnc(C)cn2)nnc1[C@H]1CCOC1` (single isomer, unassigned) [Example 132.0, (2S,3R)-N-(4-(2,6-dimethoxyphenyl)-5-((R)-tetrahydrofuran-3-yl)-4H-1,2,4-triazol-3-yl)-3-(5-methylpyrazin-2-yl)butane-2-sulfonamide or (2S,3R)-N-(4-(2,6-dimethoxyphenyl)-5-((S)-tetrahydrofuran-3-yl)-4H-1,2,4-triazol-3-yl)-3-(5-methylpyrazin-2-yl)butane-2-sulfonamide], 140 nM.

On to `COc1cccc(OC)c1-n1c(NS(=O)(=O)[C@@H](C)[C@H](C)c2cnc(C)cn2)nnc1[C@H]1CCOC1` (single isomer, unassigned) [Example 133.0, (2S,3R)-N-(4-(2,6-dimethoxyphenyl)-5-((R)-tetrahydrofuran-3-yl)-4H-1,2,4-triazol-3-yl)-3-(5-methylpyrazin-2-yl)butane-2-sulfonamide or (2S,3R)-N-(4-(2,6-dimethoxyphenyl)-5-((S)-tetrahydrofuran-3-yl)-4H-1,2,4-triazol-3-yl)-3-(5-methylpyrazin-2-yl)butane-2-sulfonamide], for which the EC50 worked out at 320 nM. In the case of `COc1cccc(OC)c1-n1c(NS(=O)(=O)[C@@H](C)[C@H](C)c2cnc(C)cn2)nnc1[C@H]1CCCOC1` (single isomer, unassigned) [Example 134.0, (2S,3R)-N-(4-(2,6-dimethoxyphenyl)-5-((R)-tetrahydro-2H-pyran-3-yl)-4H-1,2,4-triazol-3-yl)-3-(5-methylpyrazin-2-yl)butane-2-sulfonamide or (2S,3R)-N-(4-(2,6-dimethoxyphenyl)-5-((S)-tetrahydro-2H-pyran-3-yl)-4H-1,2,4-triazol-3-yl)-3-(5-methylpyrazin-2-yl)butane-2-sulfonamide] it was 400 nM.

In general, EC50 refers to the concentration that produces a half-maximal response.
